Experimental data from US20130203662A1, “Mini-Hepcidin Peptides and Methods of Using Thereof” (priority 2008, published 2013).
Square brackets hold non-standard residues; d marks the D form. Peptide text beside a SMILES is read from it.

How the values were obtained:
C57/B16J mice = assay: Serum iron assay in mice after peptide administration; type: in vivo
Description: Serum iron assay. The decrease in serum iron after peptide administration is the principal measure of hepcidin activity. Thus, as provided herein, the hepcidin activity of selected peptides of the present invention were assayed in vivo by measuring serum iron in test subjects. […] Two weeks before the experiment, the mice were switched to a diet containing about 2-4 ppm iron (Harlan Teklad, Indianapolis, Ind.) in order to suppress endogenous hepcidin. Peptide stocks were diluted to desired concentrations in sterile phosphate buffered saline (PBS) or other diluents as described next. […] Mice were sacrificed 4 hours later, blood was collected by cardiac puncture, and serum was separated using MICROTAINER tubes (Becton Dickinson, Franklin Lakes, N.J.). Serum iron was determined by using a colorimetric assay (Diagnostic Chemicals, Oxford, Conn.), which was modified for the microplate format so that 10 μl serum was used per measurement. The results were expressed as the percentage of decrease in serum iron when compared with the average value of serum iron levels in PBS-treated mice.

[1] = biological target: T1, ferroportin fused to green fluorescent protein (ECR293/Fpn-GFP cells) (Mus musculus, UniProt Q9JHI9); assay: Flow cytometry of ferroportin-GFP internalization and degradation in ECR293/Fpn-GFP cells; type: cell-based; details: concentration eliciting 50% of maximal loss of fluorescence generated by reference Hep25; 24 hours; read-out: EC50 (the source's name)
T1 sequence (Q9JHI9 1-570): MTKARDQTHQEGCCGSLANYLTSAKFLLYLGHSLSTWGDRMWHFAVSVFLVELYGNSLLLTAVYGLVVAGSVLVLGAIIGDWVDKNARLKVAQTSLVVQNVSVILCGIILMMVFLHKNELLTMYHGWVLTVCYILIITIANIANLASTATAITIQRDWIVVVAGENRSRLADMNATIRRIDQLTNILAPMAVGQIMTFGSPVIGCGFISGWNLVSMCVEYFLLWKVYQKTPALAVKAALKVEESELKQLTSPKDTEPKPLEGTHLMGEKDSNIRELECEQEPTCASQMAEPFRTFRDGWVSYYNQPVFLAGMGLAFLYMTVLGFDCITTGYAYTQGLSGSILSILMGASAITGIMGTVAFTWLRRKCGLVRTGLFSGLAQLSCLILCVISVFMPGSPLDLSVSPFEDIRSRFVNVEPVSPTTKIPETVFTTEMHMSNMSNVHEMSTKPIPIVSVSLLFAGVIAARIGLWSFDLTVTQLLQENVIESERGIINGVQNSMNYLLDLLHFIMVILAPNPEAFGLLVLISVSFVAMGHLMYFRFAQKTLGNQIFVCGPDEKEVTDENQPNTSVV
Description: In vitro activity may be measured by the dose-dependent loss of fluorescence of cells engineered to display ferroportin fused to green fluorescent protein as in Nemeth et al. (2006) Blood 107:328-33. […]
FLOW CYTOMETRY. The activity of peptides of the present invention was measured by flow cytometry as previously described. See Nemeth et al. (2006) Blood 107:328-333, which is herein incorporated by reference. ECR293/Fpn-GFP, a cell line stably transfected with a ponasterone-inducible ferroportin construct tagged at the C-terminus with green fluorescent protein was used. See Nemeth et al. (2004) Science 306:2090-2093, which is herein incorporated by reference. Briefly, the cells were plated on poly-D-lysine coated plates in the presence of 20 μM FAC, with or without 10 μM ponasterone. After 24 hours, ponasterone was washed off, and cells were treated with peptides for 24 hours. Cells were then trypsinized and resuspended at 1×10^6 cells/ml, and the intensity of green fluorescence was analyzed by flow cytometry. […] Cells not induced with ponasterone to express Fpn-GFP were used to establish a gate to exclude background fluorescence. Cells induced with ponasterone, but not treated with any peptides, were used as the positive control. Each peptide was tested over the range of concentrations (0, 0.01, 0.03, 0.1, 0.3, 1, 3 and 10 μM). Each peptide treatment was repeated independently 3 to 6 times.

[2] = i.p., 20 nmoles in PBS, 4 hours
[3] = i.p., 200 nmoles in PBS, 4 hours
[4] = i.p., 50 μg per mouse in PBS, 4 hours, vs PBS

With `CCCCCCCCCCCCCCCC(=O)NCCOCCOCCOCCOCCOCCOCCOCCOCCOCCOCCOCCOCCC(=O)N[C@H](Cc1ccccc1)C(=O)N[C@@H](C(=O)N[C@H](CS)C(=O)N[C@@H](C(=O)N1CCC[C@@H]1C(=O)N[C@H](Cc1ccccc1)C(=O)N[C@H](Cc1c[nH]cn1)C(=O)N[C@@H](C(=O)N[C@H](CC(=O)O)C(N)=O)[C@H](C)O)[C@H](C)CC)[C@H](C)CC` [Pr27] the serum iron (C57/B16J mice; [2]) was “serum iron decrease comparable to that caused by i.p. administration of 20 nmoles Hep25”, the serum iron (C57/B16J mice; i.p., 20 nmoles in liposomal solution, 4 hours) was “serum iron decrease similar to that caused by i.p. administration of 20 nmoles Hep25” and the serum iron (C57/B16J mice; [3]) was “even greater decrease in serum iron concentrations”. For the same molecule, the serum iron (C57/B16J mice; oral by gavage, 200 nmoles in cremophore EL solution, vs PBS in same formulation) was “caused a decrease in serum iron in mice”.
In the case of `CC[C@H](C)[C@H](NC(=O)[C@H](CS)NC(=O)[C@@H](NC(=O)[C@@H]1CCCN1C(=O)[C@H](Cc1ccccc1)NC(=O)[C@H](Cc1c[nH]cn1)NC(=O)[C@@H](NC(=O)[C@@H](N)CC(=O)O)[C@@H](C)O)[C@@H](C)CC)C(=O)N[C@@H](Cc1ccccc1)C(N)=O` [Hep9], the serum iron (C57/B16J mice; [4]) is reported as “did not result in a serum iron decrease”.
With `CC[C@@H](C)[C@@H](NC(=O)[C@H](N)Cc1ccccc1)C(=O)N[C@H](CS)C(=O)N[C@@H](C(=O)N1CCC[C@@H]1C(=O)N[C@H](Cc1ccccc1)C(=O)N[C@H](Cc1c[nH]cn1)C(=O)N[C@@H](C(=O)N[C@H](CC(=O)O)C(N)=O)[C@H](C)O)[C@H](C)CC` [Pr12] the DC50 [1] was 900 nM and the serum iron (C57/B16J mice; [4]) was “significant decrease in serum iron after 4 hours”.
`CC[C@@H](C)[C@@H](NC(=O)[C@H](N)Cc1ccccc1)C(=O)N[C@H](CS)C(=O)N[C@@H](C(=O)N1CCC[C@@H]1C(=O)N[C@H](Cc1ccccc1)C(=O)N[C@H](Cc1c[nH]cn1)C(N)=O)[C@H](C)CC` [riHep7ΔDT] (H-[dF][dI][dC][dI][dP][dF][dH]-NH2; N-terminus assumed) was tested, and the DC50 [1] was 150 nM, the serum iron (C57/B16J mice; [2]) was “slightly but not significantly reduced serum iron concentrations” and the serum iron (C57/B16J mice; [3]) was “serum iron concentrations significantly lower than those achieved after injection of PBS”.
